Data as given in patent publication US5916869A, “Method of treating birds in ovo” (North Carolina State University, priority 1997, dated 1999).

Legend:
[1] = test system: jejunal glucose transport; settings: cited from earlier work; for glucose absorption: young growing mice, exogenous administration
[2] = Broiler chick body weight after in ovo administration; format: in vivo, broiler chicks
Description: (§1) To test this hypothesis, the following study was carried out: Four hundred and sixty eggs were randomly divided into two groups and administered either saline (control) or PYY (600 μg/kg egg weight) into the air cell on day 18 of incubation. At hatching 420 chicks were vent sexed, wing-banded, weighed and randomly placed by treatment and sex into 60 pens of 7 chicks each. Pens were equipped with chick founts, nipple drinkers, and feeders. […] The light cycle was 23 light and 1 dark for the entire experiment.
(§2) Chicks were fed a starter diet (22% CP) for the first 3 weeks and a grower diet (20% CP) for the remaining 3 weeks. Individual chicks were weighed weekly and pen feed consumption recorded as feeders were refilled. At week six, all birds were weighed and euthanized with CO2. Data were statistically analyzed using the General Linear Models Procedure of SAS (1988) with treatment, sex, room and pen as the main effects. Differences were considered significant at P<0.05.
(§3) Weight gain and Feed Conversion Ratio (FCR) were evaluated in broiler chicks treated in ovo with PYY as described in Example 1. Although there were sex differences (P<0.05) for many of the growth and performance parameters, there were no sex x treatment interactions (P<0.05). Therefore, data from both sexes was combined.

[3] = Broiler chick Feed Conversion Ratio (FCR) after in ovo administration; format: in vivo, broiler chicks
Description: as §1, §2, §3

[4] = in vivo
Description: as §1, §2, §3

Substance | glucose absorption [1] | body weights vs saline control (FIG. 1) ([2]; hatch and week 1 of age, in ovo injection) | body weight, heavier than chicks from control eggs ([2]; week 1, 600 μg/kg egg weight into air cell on day 18 of incubation, vs saline) [%] | broiler weights vs control ([2]; weeks 3 and 6, data not shown) | FCR, less than chicks from saline treated eggs ([3]; one week of age, 600 μg/kg egg weight in ovo) [%] | FCR vs saline control (FIG. 2) ([3]; week 1, in ovo injection) | FCR vs control ([3]; weeks 3 and 6, data not shown) | Mortality [4] | Mortality, difference between treatments [4] | active jejunal glucose transport ([1]; mice treated with PYY) | intestinal energy expenditure ([1]; mice treated with PYY) | passive transport rates ([1]; mice treated with PYY)
epidermal growth factor (NSDSECPLSHDGYCLHDGVCMYIEALDKYACNCVVGYIGERCQYRDLKWWELR; Epidermal growth factor; UniProt P01133 971-1023, looked up) [EGF, epidermal growth factor, peptide administered in ovo as comparison treatment] | increases glucose absorption |  |  |  |  |  |  |  |  |  |  | 
PYY: 36 amino acid peptide hormone produced by L type endocrine cells, member of the pancreatic polypeptide family; term covers PYY-I and PYY-II [Peptide YY] | increases glucose absorption | significantly (P<0.05) greater | 2.7 | No statistical differences | 3.99 | significantly lower (P<0.05) | No differences | less than 1% | did not differ significantly between treatments | increase in active jejunal glucose transport | without any increase in intestinal energy expenditure | without a corresponding increase in passive transport rates
